Like-named read-outs stand apart in the source and are kept apart here. Where no end group is shown, it is not given here.
Assays:
Assay in all cases: Direct-binding FRET assay
BACH1 = BACH1 (Homo sapiens, UniProt O14867); parameters: made in house
Protocol: (§1) The direct binding assay was performed manually in 384-well plates and is similar to a previously described assay. Wells were filled with 20 μL of 1 mM TCEP-HCl. A 4 μM stock of acceptor protein was made fresh in 1 mM TCEP-HCl, and 20 μL was titrated in 2-fold dilutions over the wells. […] The direct-binding FRET data were fit as previously described. Briefly, the Kd of the designed peptide homodimer was experimentally determined and used with previously determined target homodimer Kd values to determine the heterodimer Kd. The homodimer Kd values used for the human bZIPs were from; experiments done by […] et al. used the same protein constructs for the human bZIP proteins, the same buffer conditions, and the same assay. The fitting used a system of ordinary differential equations to describe the concentrations of homo and heterodimers formed by the donor (D) and acceptor (A) as a function of the heterodimer Kd. MATLAB was used to simulate the binding experiment for different Kd values, and the value that gave the best agreement between simulation and experiment was assigned. A minimum 15% change in the donor fluorescence upon titrating the acceptor peptide from 0 to 1000 nM was required for a fit to be attempted. If this minimum was not met, the interaction was classified as “NS” for no signal change. […] These interactions were marked “AS” to indicate anomalous signal. We attributed this to interactions between the peptides, the dyes and the walls of the assay plates at low concentrations. These curves could not be fit, given their unusual shapes at low concentrations of acceptor. For such curves, we removed the first five points and re-fit the data. […] One example of this is increasing concentrations of acceptor causing an increase in donor fluorescence.

BACH2 = BACH2 (Homo sapiens, UniProt Q9BYV9); parameters: made in house; conditions: Kd
Protocol: as §1

MAF = MAF (Homo sapiens, UniProt O75444); parameters: made in house
Protocol: as §1

NFE2L1 = NFE2L1 (Homo sapiens, UniProt Q14494); parameters: made in house; conditions: Kd, mean or single
Protocol: as §1

ATF6 = ATF6 (Homo sapiens, UniProt P18850); parameters: made in house
Protocol: as §1

MAFB = MAFB (Homo sapiens, UniProt Q9Y5Q3); parameters: made in house; conditions: Kd, mean or single
Protocol: as §1

XBP1 = molecular target: T1, XBP1 (Homo sapiens, UniProt P17861)
T1 construct: made in house
T1 sequence (P17861 70-133 limits assumed): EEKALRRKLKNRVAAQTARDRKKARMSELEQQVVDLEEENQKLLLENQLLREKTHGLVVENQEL
Summary of the method: (§2)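 Wells held 1 mM TCEP-HCl; acceptor protein was serially diluted 2-fold across them, then donor FRET signal was recorded. The heterodimer Kd giving the closest simulated match to the data was assigned, with homodimer Kd values as fixed inputs.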

ATF3 = molecular target: T2, ATF3 (Homo sapiens, UniProt P18847)
T2 construct: made in house
T2 sequence (P18847 86-149 limits assumed): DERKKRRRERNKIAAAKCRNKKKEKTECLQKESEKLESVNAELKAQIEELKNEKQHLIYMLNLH
Summary of the method: as §2

MAFF = molecular target: T3, MAFF (Homo sapiens, UniProt Q9ULX9)
T3 construct: made in house
T3 sequence (Q9ULX9 51-114 limits assumed): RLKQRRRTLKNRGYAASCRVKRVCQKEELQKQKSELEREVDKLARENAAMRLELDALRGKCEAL
Summary of the method: as §2

[1] = 4°C, C-terminal fluorescein design as donor, TAMRA target titrated
[2] = 4°C, C-terminal rhodamine design, mean or single
[3] = 4°C, N-terminal rhodamine design, mean or single
[4] = 23°C, C-terminal fluorescein design as donor, TAMRA target titrated
[5] = 23°C, C-terminal rhodamine design, mean or single
[6] = 23°C, N-terminal rhodamine design, mean or single
[7] = 37°C, C-terminal fluorescein design as donor, TAMRA target titrated
[8] = 37°C, N-terminal rhodamine design, mean or single
[9] = 4°C, C-terminal rhodamine design
[10] = 4°C, N-terminal rhodamine design
[11] = 23°C, C-terminal rhodamine design
[12] = 23°C, N-terminal rhodamine design
[13] = 37°C, C-terminal rhodamine design
[14] = 37°C, N-terminal rhodamine design
[15] = 4°C, C-terminal rhodamine design, repeat 1
[16] = 23°C, C-terminal rhodamine design, repeat 1

Sequence of BACH2 (Q9BYV9 646-709 limits assumed): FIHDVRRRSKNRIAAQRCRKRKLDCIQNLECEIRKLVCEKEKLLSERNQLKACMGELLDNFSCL
Sequence of ATF6 (P18850 306-369 limits assumed): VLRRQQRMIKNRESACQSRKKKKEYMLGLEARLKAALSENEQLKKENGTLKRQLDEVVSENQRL
Sequence of NFE2L1 (Q14494 654-717 limits assumed): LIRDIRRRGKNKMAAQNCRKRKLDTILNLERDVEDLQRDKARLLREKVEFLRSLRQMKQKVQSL
Sequence of MAF (O75444 288-351 limits assumed): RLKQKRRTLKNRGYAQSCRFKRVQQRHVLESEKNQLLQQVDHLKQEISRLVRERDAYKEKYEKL
Sequence of BACH1 (O14867 557-620 limits assumed): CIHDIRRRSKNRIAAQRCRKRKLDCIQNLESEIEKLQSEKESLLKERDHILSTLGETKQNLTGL

SIAATLEKEEANLEKMNKKLAAEIESLLKEKDKLESVLNYHE [JUN-d1]
Kd (BACH1): > 1 µM | Kd (BACH1; [1]): > 1 µM | Kd (BACH1; [2]): > 1 µM | Kd (BACH1; [3]): > 1 µM | Kd (BACH1; [4]): > 1 µM | Kd (BACH1; [5]): > 1 µM | Kd (BACH1; [6]): > 1 µM | Kd (BACH1; [7]): > 1 µM | Kd (BACH1; [8]): > 1 µM | Kd (BACH2; [1]): > 1 µM | Kd (BACH2; [2]): > 5 µM | Kd (BACH2; [3]): > 1 µM | Kd (BACH2; [4]): > 1 µM | Kd (BACH2; [5]): > 1 µM | Kd (BACH2; [6]): > 1 µM | Kd (BACH2; [7]): > 1 µM | Kd (BACH2; 37°C, C-terminal rhodamine design, mean or single): > 1 µM | Kd (BACH2; [8]): > 1 µM | Kd (MAF): > 1 µM | Kd (MAF; [2]): > 1 µM | Kd (MAF; [3]): > 1 µM | Kd (MAF; [5]): > 1 µM | Kd (MAF; [6]): > 1 µM | Kd (MAF; [8]): > 1 µM | Kd (NFE2L1; [9]): > 5 µM | Kd (NFE2L1; [10]): > 1 µM | Kd (NFE2L1; [11]): > 5 µM | Kd (NFE2L1; [12]): > 1 µM | Kd (NFE2L1; [13]): > 5 µM | Kd (NFE2L1; [14]): > 1 µM | Kd (ATF6): > 1 µM | Kd (ATF6; [1]): > 1 µM | Kd (ATF6; [2]): > 1 µM | Kd (ATF6; [3]): > 1 µM | Kd (ATF6; [4]): > 1 µM | Kd (ATF6; [5]): > 1 µM | Kd (ATF6; [6]): > 1 µM | Kd (ATF6; [7]): > 1 µM | Kd (ATF6; [8]): > 1 µM | Kd (MAFB; [9]): 0.326 µM | Kd (MAFB; [10]): > 1 µM | Kd (MAFB; [11]): > 1 µM | Kd (MAFB; [12]): > 1 µM | Kd (MAFB; [13]): > 1 µM | Kd (MAFB; [14]): > 1 µM | Kd (XBP1): > 1 µM | Kd (XBP1; [15]): > 1 µM | Kd (XBP1; [3]): > 1 µM | Kd (XBP1; [16]): > 1 µM | Kd (XBP1; [6]): > 1 µM | Kd (XBP1; [8]): > 1 µM | Kd (ATF3): > 1 µM | Kd (ATF3; [1]): > 1 µM | Kd (ATF3; [3]): > 1 µM | Kd (ATF3; [4]): > 1 µM | Kd (ATF3; [16]): > 1 µM | Kd (ATF3; [6]): > 1 µM | Kd (ATF3; [7]): > 1 µM | Kd (ATF3; [8]): > 1 µM | Kd (MAFF): > 1 µM | Kd (MAFF; [15]): > 1 µM | Kd (MAFF; [3]): > 1 µM | Kd (MAFF; [16]): > 1 µM | Kd (MAFF; [6]): > 1 µM | Kd (MAFF; [8]): > 1 µM

Reference: article PMC4335062, “Data-Driven Prediction and Design of bZIP Coiled-Coil Interactions” (PLoS Computational Biology, 2015)
